{
  "source": "patent EP0437382A1",
  "about": "“Thimidin derivatives, their preparation and compositions containing them” (RHONE-POULENC SANTE, priority 1990, dated 1991)",
  "key": {"virus HIV (LAV-1-BRU)": {"tested_on": "virus HIV (LAV-1-BRU)", "assay": "microbe, parasite or virus in culture", "format": "cell-based", "settings": "for Cellules infectées densité optique DO 600: control (0 µg/ml) 0.293", "description": "(§1) Dans ce qui suit on décrit les résultats sur l'effet cytopathogène et la multiplication du virus HIV dans une lignée cellulaire permissive (cellules lymphoblastoïdes humaines CEM).\n(§2) Le test est réalisé sur la lignée lymphoblastoïde CEM clone 13. Dans une microplaque de 96 puits on dépose 25 µl/puit d'une solution de produit à tester ou de tampon phosphate isotonique (TPI) dans le cas des contrôles. Les produits sont étudiés à différentes concentrations (souvent 8), à raison de 4 puits par concentration. On ajoute alors 125 µl d'une suspension de cellules CEM dans le milieu RPMI contenant 10 % de sérum de veau foetal, 40 U/ml de pénicilline, 40 µg/ml de streptomycine et 5 µg/ml de polybrène (3500 cellules par puit) et les microplaques sont incubées une heure à 37°C, sous une atmosphère contenant 5 % de gaz carbonique. L'essai est fait en double: une partie sur cellules infectées, pour la détermination de l'activité antivirale et l'autre partie sur cellules non infectées, pour déterminer la cytotoxité des produits. On infecte la première série avec HIV (100 µl par puit d'une suspension de virus LAV-1-BRU contenant 200-300 TCID50) tandis que l'autre série reçoit 100 µl de milieu RPMI tel que défini précédemment. Après 7 jours d'incubation, 175 µl de surnageant sont prélevés et seront utilisés par la suite pour le dosage de la reverse transcriptase. La viabilité cellulaire est déterminée selon une modification de la technique décrite par R. PAUWELS et coll., J. Virol. Meth., 20, 309-321 (1988).\n(§3) Les puits, contenant encore les cellules (infectées ou non infectées), reçoivent 10 µl d'une solution de MTT (méthylthiazoletétrazolium) à 5 mg/ml dans du tampon phosphate isotonique. Pendant une période d'incubation de 4 heures, le MTT est converti en un sel de formazan (bleu) à l'intérieur des cellules vivantes et proportionnellement à leur nombre, alors que rien n'apparaît dans les puits ne contenant plus que des cellules mortes. On ajoute alors 120 µl d'isopropanol (contenant 0,04 mole/l d'acide chlorhydrique) et les microplaques sont agitées jusqu'à la solubilisation du bleu de formazan. […]\n(§4) Dans ces conditions les cellules infectées sont lysées à environ 60-70 % par rapport aux cellules non infectées. On établit la concentration du produit qui inhibe l'effet cytopathogène du virus de 50 % (CE50). On détermine également celle qui inhibe de 50 % la croissance des cellules non infectées (CC50). Le rapport entre CC50 et CE50 est défini comme l'indice de sélectivité antivirale i."}, "[1]": {"tested_on": "transcriptase inverse du virus HIV", "assay": "Viral multiplication by reverse transcriptase assay on culture supernatant", "format": "cell-based", "settings": "0,1 µg/cm³", "description": "as §2, with “(1988). […]” for “(1988).”"}, "[2]": {"tested_on": "précurseurs erythrocytaires de la moelle osseuse", "assay": "BFU-E test (bone marrow erythrocyte precursors)", "format": "cell-based, humaine", "settings": "108 µg/ml, human bone marrow", "description": "(§5) Enfin, les produits selon l'invention manifestent un intérêt considérable du fait de leur absence de toxicité à des concentrations élevées à l'égard des précurseurs hématopoietiques de la moelle humaine.\n(§6) Il est en effet connu que l'un des problèmes majeurs associés au traitement par certains produits de cette classe, est la toxicité sur les précurseurs erythrocytaires et granulocytaires/macrophagiques de la moelle osseuse, qui se traduit du point de vue clinique dans des sévères anémies et leucopénies [D.D. RICHMAN et al., N. Engl. J. Med., 317, 192-197, (1987). R. YARCHOAN et al., Lancet i, 575-580, (1986)]. Cette toxicité peut être mise en évidence au niveau du laboratoire par des tests in vitro, sur des précurseurs erythrocytaires et granulocytaires/macrophagiques de la moelle osseuse (J.P. SOMMADOSSI et R. CARLISLE, Antimicro. Ag. Chemother., 31, 452-454, (1987). L'étude est mise en oeuvre dans les techniques de D. THIERRY et al., Acta Radiol., 24, 521-526, (1985) et D. METCALF, Hematopoietic Colony Stimulating factors, p 88-89, Elsevier (1984).\n(§7) Dans le test CFU-G/M, la concentration inhibitrice de 50% de la formation des clones est de 30 µg/ml."}, "[3]": {"tested_on": "précurseurs granulocytaires/macrophagiques de la moelle osseuse", "assay": "CFU-G/M test (bone marrow granulocyte/macrophage precursors, clone formation)", "format": "cell-based, humaine", "settings": "CFU-GM, human bone marrow, read-out: concentration inhibitrice de 50% de la formation des clones", "description": "as §5, §6, §7"}, "[4]": {"assay": "Cytotoxicity on non-infected CEM cells (MTT viability)", "format": "cell-based, humaines", "settings": "human; non-infected CEM cells, 7 days; read-out: CC50 (concentration qui inhibe de 50 % la croissance des cellules non infectées)", "description": "as §1, §2, §3, §4"}, "[5]": {"tested_on": "lignée lymphoblastoïde CEM clone 13, cellules non infectées", "assay": "Cytotoxicity on non-infected CEM cells (MTT viability)", "format": "cell-based, humaines", "settings": "7 days, control (0 µg/ml) 0.954", "description": "as §1, §2, §3, §4"}},
  "data": [
    {"compound": "Cc1cn([C@H]2C[C@H](N=[N+]=[N-])[C@@H](CO)O2)c(=O)n(N)c1=O", "note": "[Exemple 1, azido-3′ amino-3 désoxy-3′ thymidine]", "values": [
      {"measurement": "Cellules infectées densité optique DO 600", "setting": "virus HIV (LAV-1-BRU); 0.0003 µg/ml, 7 days", "value": 0.311},
      {"measurement": "Cellules infectées densité optique DO 600", "setting": "virus HIV (LAV-1-BRU); 0.001 µg/ml, 7 days", "value": 0.359},
      {"measurement": "Cellules infectées densité optique DO 600", "setting": "virus HIV (LAV-1-BRU); 0.003 µg/ml, 7 days", "value": 0.456},
      {"measurement": "Cellules infectées densité optique DO 600", "setting": "virus HIV (LAV-1-BRU); 0.01 µg/ml, 7 days", "value": 0.565},
      {"measurement": "Cellules infectées densité optique DO 600", "setting": "virus HIV (LAV-1-BRU); 0.03 µg/ml, 7 days", "value": 0.577},
      {"measurement": "Cellules infectées densité optique DO 600", "setting": "virus HIV (LAV-1-BRU); 0.1 µg/ml, 7 days", "value": 0.596},
      {"measurement": "Cellules infectées densité optique DO 600", "setting": "virus HIV (LAV-1-BRU); 0.3 µg/ml, 7 days", "value": 0.838},
      {"measurement": "Cellules infectées densité optique DO 600", "setting": "virus HIV (LAV-1-BRU); 1 µg/ml, 7 days", "value": 0.926},
      {"measurement": "Cellules infectées densité optique DO 600", "setting": "virus HIV (LAV-1-BRU); 3 µg/ml, 7 days", "value": 0.865},
      {"measurement": "Cellules infectées densité optique DO 600", "setting": "virus HIV (LAV-1-BRU); 10 µg/ml, 7 days", "value": 0.441},
      {"measurement": "Cellules infectées densité optique DO 600", "setting": "virus HIV (LAV-1-BRU); 30 µg/ml, 7 days", "value": 0.007},
      {"measurement": "EC50", "setting": "virus HIV (LAV-1-BRU); Human immunodeficiency virus 1, CCRF-CEM, 168 h, infected CEM cells, 7 days, read-out: CE50 (concentration qui inhibe l'effet cytopathogène du virus de 50 %)", "value": 0.01, "unit": "µg/mL"},
      {"measurement": "indice de sélectivité i = CC50/CE50", "setting": "virus HIV (LAV-1-BRU); human, cem cells, 168 h", "value": 1000},
      {"measurement": "activité de la transcriptase inverse, coups par minute (cpm)", "setting": "[1]; untreated infected cultures 204363 cpm", "value": 44558, "unit": "cpm"},
      {"measurement": "inhibition at 0.1 µg/mL", "setting": "[1]; Human immunodeficiency virus 1, CCRF-CEM, 168 h, culture supernatant after 7 days, read-out: % d'inhibition (reverse transcriptase du virus HIV)", "value": 80, "unit": "%"},
      {"measurement": "toxicité dans le test BFU-E", "setting": "[2]", "value": "dépourvu de toxicité"},
      {"measurement": "IC50", "setting": "[3]", "value": 30, "unit": "µg/mL"},
      {"measurement": "CC50 at 168 h", "setting": "[4]", "value": 10, "unit": "µg/mL"},
      {"measurement": "cellules non infectées densité optique DO 600", "setting": "[5]; 0.0003 µg/ml", "value": 0.935},
      {"measurement": "cellules non infectées densité optique DO 600", "setting": "[5]; 0.001 µg/ml", "value": 0.888},
      {"measurement": "cellules non infectées densité optique DO 600", "setting": "[5]; 0.003 µg/ml", "value": 0.882},
      {"measurement": "cellules non infectées densité optique DO 600", "setting": "[5]; 0.01 µg/ml", "value": 0.884},
      {"measurement": "cellules non infectées densité optique DO 600", "setting": "[5]; 0.03 µg/ml", "value": 0.901},
      {"measurement": "cellules non infectées densité optique DO 600", "setting": "[5]; 0.1 µg/ml", "value": 0.928},
      {"measurement": "cellules non infectées densité optique DO 600", "setting": "[5]; 0.3 µg/ml", "value": 0.931},
      {"measurement": "cellules non infectées densité optique DO 600", "setting": "[5]; 1 µg/ml", "value": 0.909},
      {"measurement": "cellules non infectées densité optique DO 600", "setting": "[5]; 3 µg/ml", "value": 0.892},
      {"measurement": "cellules non infectées densité optique DO 600", "setting": "[5]; 10 µg/ml", "value": 0.368},
      {"measurement": "cellules non infectées densité optique DO 600", "setting": "[5]; 30 µg/ml", "value": 0.004}
    ]}
  ]
}
